Measurements published in patent publication US8962628B2, “Herbicidal 5H-quinoxaline-6-one derivatives detailed description” (Syngenta Limited, priority 2010, dated 2015).

How the values were obtained:
Type in all cases: in vivo
Amaranthus retroflexus [1] = assay: Herbicidal action post-emergence (Example B1); details: post-emergence spray, rate 1000 g/ha, evaluated after 13 days; 10=total damage to plant, 0=no damage to plant
Description: (§1) Seeds of a variety of test species were sown in standard soil in pots. After 8 days cultivation (post-emergence) under controlled conditions in a glasshouse (at 24/16° C., day/night; 14 hours light; 65% humidity), the plants were sprayed with an aqueous spray solution derived from the formulation of the technical active ingredient in acetone/water (50:50) solution containing 0.5% Tween 20 (polyoxyethelyene sorbitan monolaurate, CAS RN 9005-64-5). The test plants were then grown under controlled conditions in a glasshouse (at 24/16° C., day/night; 14 hours light; 65% humidity) and watered twice daily. After 13 days, the test was evaluated (10=total damage to plant; 0=no damage to plant).

Echinochloa crus-galli [2] = assay: Herbicidal action post-emergence (Example B1); details: post-emergence spray, rate 1000 g/ha, evaluated after 13 days; 10=total damage to plant, 0=no damage to plant
Description: as §1

Ipomea hederaceae [3] = assay: Herbicidal action post-emergence (Example B1); details: post-emergence spray, rate 1000 g/ha, evaluated after 13 days; 10=total damage to plant, 0=no damage to plant
Description: as §1

Setaria faberi [4] = assay: Herbicidal action post-emergence (Example B1); details: post-emergence spray, rate 1000 g/ha, evaluated after 13 days; 10=total damage to plant, 0=no damage to plant
Description: as §1

Solanum nigrum = assay: Herbicidal action post-emergence (Example B1); details: post-emergence spray, rate 1000 g/ha, evaluated after 13 days; 10=total damage to plant, 0=no damage to plant
Description: as §1

Amaranthus retroflexus [5] = assay: Herbicidal action post-emergence (Example B2); details: post-emergence spray with adjuvant X-77, rate 500 g/ha, evaluated after 15 days; 10=total damage to plant, 0=no damage to plant
Description: (§2) Seeds of crop and representative weed species were sown in standard soil in pots. After cultivation for 14 days under controlled conditions in a glasshouse (at 22/16° C., day/night; 16 hours light; 65% humidity), the plants were sprayed. The spray solution was prepared by dissolving the technical active ingredient in acetone containing 10.56 wt % Emulsogen EL, 42.22 wt % N-methylpyrrolidone and 2.22 wt % DPG-monoethyl ether to give a 5% stock solution. This was then diluted with water containing 0.2% (v/v) of the adjuvant X-77 to give the desired treatment concentration.
(§3) The test plants were then grown on under controlled conditions in a glasshouse (at 22/16° C., day/night; 16 hours light; 65% humidity) and watered twice daily. After 15 days the test was evaluated (10=total damage to plant; 0=no damage to plant).

Echinochloa crus-galli [6] = assay: Herbicidal action post-emergence (Example B2); details: post-emergence spray with adjuvant X-77, rate 500 g/ha, evaluated after 15 days; 10=total damage to plant, 0=no damage to plant
Description: as §2, §3

Ipomea hederaceae [7] = assay: Herbicidal action post-emergence (Example B2); details: post-emergence spray with adjuvant X-77, rate 500 g/ha, evaluated after 15 days; 10=total damage to plant, 0=no damage to plant
Description: as §2, §3

Setaria faberi [8] = assay: Herbicidal action post-emergence (Example B2); details: post-emergence spray with adjuvant X-77, rate 500 g/ha, evaluated after 15 days; 10=total damage to plant, 0=no damage to plant
Description: as §2, §3

Row | SMILES | AMARE damage to plant (score 0-10) (Amaranthus retroflexus [1]) | ECHCG damage to plant (score 0-10) (Echinochloa crus-galli [2]) | IPOHE damage to plant (score 0-10) (Ipomea hederaceae [3]) | SETFA damage to plant (score 0-10) (Setaria faberi [4]) | SOLNI damage to plant (score 0-10) (Solanum nigrum) | AMARE damage to plant (score 0-10) (Amaranthus retroflexus [5]) | ECHCG damage to plant (score 0-10) (Echinochloa crus-galli [6]) | IPOHE damage to plant (score 0-10) (Ipomea hederaceae [7]) | SETFA damage to plant (score 0-10) (Setaria faberi [8])
1 | CC1(C)C(=O)C(c2ccccc2C(F)(F)F)C(=O)c2nccnc21 (stereo not shown) [Compound E1, 8,8-dimethyl-6-(2-trifluoromethyl-phenyl)-8H-quinoxaline-5,7-dione] | 10 | 9 | 9 | 9 | 10 | 10 | 3 | 8 | 7
2 | CC(C)C(=O)OC1=C(c2ccccc2C(F)(F)F)C(=O)C(C)(C)c2nccnc21 [Compound F1, isobutyric acid 8,8-dimethyl-7-oxo-6-(2-trifluoromethyl-phenyl)-7,8-dihydro-quinoxalin-5-yl ester] | – | – | – | – | – | 10 | 8 | 8 | 8
